For data set [1], the system named is Hepatitis C virus. The experiment in a line: Binding affinity to HCV1b C-terminally truncated NS5B Cdelta21 RNA dependent RNA polymerase expressed in Escherichia coli by surface plasmon resonance assay. The arrangement: species or system Hepatitis C virus subtype 1b. (In SPR one partner is held on a chip, and binding of the other changes the refractive index at the surface.)

The subject of data set [2] is Hepatitis C virus. Nature of the data set: Inhibition of HCV1b NS5B delta21 polymerase assessed as incorporation of nucleotides into sshRNA template using [33P]-CTP after 15 mins by scintillation counting. To be noted: 0.25 h. Also noted: species or system Hepatitis C virus subtype 1b.
For data set [3], the system named is Hepatitis C virus. Nature of the data set: Antiviral activity against HCV1b infected in human Huh-7 cells after 3 days by renilla luciferase activity based replicon assay. Type of data set: functional, organism-based, Hepacivirus hominis. The settings on record: genotype 1b, Huh-7, 72 h. For orientation: Replicon systems follow genome replication, usually without infectious particles.

The subject of data set [4] is Hepatitis C virus. The experiment in a line: Antiviral activity against HCV1a infected in human Huh-7 cells after 3 days by renilla luciferase activity based replicon assay. It counts as functional, organism-based, Hepacivirus hominis. To be noted: subtype 1a, Huh-7, 72 h.
The nature of data set [5]: Cytotoxicity against human HuH7 cells after 3 days by measuring conversion of nonfluorescent calcein-AM into fluorescent calcein. Type of data set: cell-based, Huh-7.
The nature of data set [6]: Lipophilicity, log D of the compound. It counts as physicochemical. The settings on record: octanol/water.
A short description of data set [7]: Selectivity index, ratio of CC50 for human HuH7 cells to EC50 for HCV1b infected in human Huh-7 cells.

Structures are written as SMILES.

Take `CN1CCC(N(C)N(c2cc(C#CC(C)(C)C)sc2C(=O)O)C(=O)[C@H]2CC[C@H](C)CC2)CC1`: the affinity in data set [1], expressed as Kd, was 4 nM. Also, the IC50 (commonly the concentration that gives 50% inhibition) in data set [2] was determined as 63 nM. For the same molecule, the EC50 – broadly, the concentration needed to bring the measured effect to its halfway point – amounted to 7 nM in data set [3] and 25 nM in data set [4]. Besides, the CC50 – broadly, the concentration at which the toxic effect on the cells reaches its halfway point – at 72 h in data set [5] is above 44000 nM.

As for `CC(C)N(c1cc(C#CC(C)(C)C)sc1C(=O)O)C(=O)[C@H]1CC[C@H](C)CC1`, the half-maximal inhibitory concentration (IC50) in data set [2] was 86 nM. The figures for the half-maximal effective concentration (EC50) in data set [3] and in data set [4] were 26 nM and 90 nM, respectively. Besides, in data set [5], the CC50 at 72 h was above 44000 nM. Besides, the logD (commonly the decadic logarithm of the distribution of all forms, ionised or not, between an organic phase and buffer at a given pH) in data set [6] was determined as 2.

As for `CN(C)N(c1cc(C#CC(C)(C)C)sc1C(=O)O)C(=O)[C@H]1CC[C@H](C)CC1`, in data set [2], the IC50 was found to be 88 nM. Moreover, the EC50 in data set [3] worked out at 89 nM; in data set [4] it was 478 nM. In addition, in data set [5], the CC50 at 72 h is above 44000 nM. In data set [7], the “Ratio CC50/EC50” value is on record as above 400. In addition, the logD in data set [6] is 2.1.

In the case of `CN(CC1CCOCC1)N(c1cc(C#CC(C)(C)C)sc1C(=O)O)C(=O)[C@H]1CC[C@H](C)CC1`, the Kd (as a rule, the free concentration of one partner at which half of the binding sites on the other are occupied at equilibrium, for simple one-to-one binding) in data set [1] turned out to be 10 nM. The IC50 in data set [2] was determined as 509 nM. Further, in data set [3], the EC50 came out at 47 nM. For the same molecule, the CC50 at 72 h in data set [5] is above 44000 nM.

For the molecule `CN(CCO)N(c1cc(C#CC(C)(C)C)sc1C(=O)O)C(=O)[C@H]1CC[C@H](C)CC1`, in data set [1], the Kd came out at 10 nM. For the same molecule, the IC50 in data set [2] worked out at 52 nM. In data set [3], this molecule gave an EC50 of 32 nM. Besides, the CC50 at 72 h in data set [5] was above 44000 nM.

Take `CN(C1CCNCC1)N(c1cc(C#CC(C)(C)C)sc1C(=O)O)C(=O)[C@H]1CC[C@H](C)CC1`: binding in data set [1] was put at a Kd of 4 nM. For the same molecule, the IC50 in data set [2] was 138 nM. This molecule also returned an EC50 in data set [3] of 60 nM. Also, the CC50 at 72 h in data set [5] is above 44000 nM.

In data set [1], `CN([C@H]1CC[C@H](O)CC1)N(c1cc(C#CC(C)(C)C)sc1C(=O)O)C(=O)[C@H]1CC[C@H](C)CC1` displayed a Kd of 8 nM. Also, in data set [2], the IC50 came out at 307 nM. This molecule displayed an EC50 in data set [3] of 34 nM. Besides, in data set [5], the CC50 at 72 h is above 44000 nM.

Turning to `CN(c1ccncc1)N(c1cc(C#CC(C)(C)C)sc1C(=O)O)C(=O)[C@H]1CC[C@H](C)CC1`, the Kd in data set [1] is 30 nM. In data set [2], the IC50 was found to be 346 nM. In addition, in data set [3], the EC50 was found to be 3900 nM. In addition, in data set [5], the CC50 at 72 h was 36000 nM.
